# Assay results as given in patent publication US4959362A, “Pharmaceutical compositions containing certain ascorbic acid derivatives useful in the prophylaxis and treatment of disorders of the circulatory system” (Takeda Chemical Industries, Inc., priority 1983, dated 1990).
# Experiments:
# mice = test: Acute toxicity in mice; assay type: in vivo; details: 300 and 1000 mg/kg orally
# Description: Male Crj-ICR mice (4-weeks old, 21~26 g) were used. The animals, divided into groups, each consisting of six mice, were administered orally with compound (1-12) at the dosage of 300 or 1000 mg/kg. Then, each group was housed in a cage, and observed for 24 hours. The test drugs were suspended in gum arabic, and administered at the volume of 0.1 ml/10 g.
# [1] = Oxidation inhibitory activity: reduction of a stable free radical (DPPH); assay type: biochemical; details: 20 minutes; 0.1 mM DPPH ethanol solution; 517 nm
# Description: Oxidation inhibitory activity determined with the use of a stable radical: In accordance with the method of M. S. Brois [Nature, 181, 1199, 1958], the activity to reduce a stable free radical, α,α-diphenyl-β-picryl hydrazyl (DPPH), was determined, which was used as an index of the oxidation inhibitory activity. […] Then, 20 minutes later, the absorbance at a wavelength of 517 nm was measured with the use of a spectrophotometer.
# [2] = test system: renal disorders due to Fe^3+ -nitrilotriacetate (NTA); test: Effects on renal disorders in rats due to Fe^3+ nitrilotriacetate (NTA); assay type: in vivo, rat (male SLC-Wistar); details: 30 mg/kg orally
# Description: Effects to alleviate renal disorders in rats due to Fe^3+ nitrilotriacetate:
# Male SLC-Wistar rats (4-weeks old, 64~85 g) were used. The animals were housed individually in metabolism cages and allowed free access to feed and water. Body weight, volume of urine and protein in urine (BIO-RAD method) were determined every day, and occult blood reaction was also examined (Labstick method). On the last day of the experiment, the kidney was excised and weighed.
# The animals were orally administered once daily with test drugs or vehicles thereof (suspension in gum arabic), and, 40~60 minutes later, were injected intraperitoneally with nitrilotriacetate (NTA) or Fe^3+ -NTA. Fe^3+ -NTA was used in a form of mixture (1:4, molar ratio), and the dosages were 5 mg/kg in terms of Fe^3+ for 3 days and successively 10 mg/kg for 5 days.
# Test drugs were compound (1-12), vitamin C and vitamin E, and the dosages were all 30 mg/kg.
# [3] = test system: lipid peroxide formation in rat brain tissue homogenate; test: Inhibition of lipid peroxide formation in rat brain tissue homogenate (TBA method); assay type: biochemical, rat (male SD); details: 10^-5 M
# Description: Activity to inhibit lipid peroxide formation in rat brain tissue homogenate:
# Male SD rats (12-weeks old) were subjected to exsanguination under anesthesia with pentobarbital, then the brain was excised. The brain tissue was homogenized in a phosphate buffer solution (pH 7.4) to prepare a 5% homogenate. After incubation of the homogenate at 37° C. for 1 hour, the amount of lipid peroxides formed therein was determined by thiobarbituric acid (TBA) method in accordance with the report of Ohkawa et al. on Analytical Biochemistry 95 351, 1979.
# The test drug was added to the 5% homogenate before incubation so as to make the final concentration be 10^-5 M. The activity to inhibit the formation of lipid peroxides was compared with that of the reference group to which was added the solvent (DMSO), and shown by % inhibition.
# [4] = test system: ischemic convulsive seizure (bilateral common carotid artery ligation); test: Inhibition of ischemic seizure due to ligation of bilateral common carotid arteries in SHR rats; assay type: in vivo, rat (male SHR)
# Description: Inhibition of ischemic seizure due to ligation of bilateral common carotid arteries in SHR rats
# Male SHR rats (22-weeks old, about 360 g) were used. Under light anesthesia with ether, the animals were subjected to midline incision at the neck and the bilateral common carotid arteries were singled, then ligated to cause cerebral ischemia. […] The animals were orally administered with test drugs as a gum arabic suspension 60 minutes before the ligation of the bilateral common carotid arteries.
# [5] = test system: ventricular arrhythmias after coronary artery occlusion-reperfusion in rat hearts; test: Inhibition of ventricular arrhythmias during coronary artery occlusion-reperfusion in rat hearts; assay type: in vivo, rat (male SD); details: for Ventricular fibrillation Duration / Ventricular tachycardia Duration: average ±SEM
# Description: Action to inhibit ventricular arrhythmias occurred during coronary artery occlusion-reperfusion in rat hearts
# Male SD rats (9~13 - weeks old, 250~370 g) were used. The animals were subjected to thoractonomy under artificial respiration while anesthesia was maintained by administering pentobarbital. […] By recording standard limb lead II electrocardiograms, occurrence of ventricular arrhythmias was examined.
# The animals were administered, under non-anesthesia, with test drugs as a gum arabic suspension at the dosage of 30 mg/kg at the time of about 90 minutes and of 20 mg/kg at the time of about 45 minutes (total: 50 mg/kg), or at the dosage of 10 mg/kg each (total: 20 mg/kg) at the time of about 90 minutes and about 45 minutes prior to closure of the coronary artery. The results are shown in Table 4 in terms of the total amount of the dosage.
# Incidences of ventricular fibrillation and ventricular tachycardia are shown by the percentage of the number of animals presenting the symptoms relative to the number of animals subjected to the test, and the duration of the symptoms was shown in average ±SEM by seconds. Extrasystole is shown by the number of systole/min, and the mortality is shown by the percentage of the number of animals killed relative to the number of animals subjected to the test.
# [6] = n = 6, last day of the experiment
# [7] = 100 mg/kg p.o., within 180 minutes
smiles,measurement,setting,value
"CCCCCCCCCCCCCCCCCCOC1=C(O)[C@@H]([C@@H](O)CO)OC1=O [Compound (1-12), 2-O-octadecylascorbic acid]",recovery from sedation and ptosis,mice,≤ 3 h
same,state observed,mice,the state of sedation and ptosis were observed
same,lethality,mice; 24-hour-observation,no test animals of either group were killed
same,concentration at which DPPH is reduced in a manner dependent upon the amount used,[1],not less than 10^-5 M
same,Effect on renal disorders,[2],renal disorders were alleviated
same,occult blood detection,[2],"only in half of the test animals, occult blood was detected"
same,urine volume and urinary protein compared with vehicle,[2],significatly less
same,weight of kidney compared with vehicle,[2],significantly less
same,Body Weight,[2]; [6],95.5 ± 3.0 g
same,Kidney Weight,[2]; [6],56.5 ± 2.0 mg
same,Occult Blood Test (positive animals/animals),[2]; [6],3/6
same,Protein in urine,[2]; [6],8.1 ± 2.1 mg/day
same,Volume of urine,[2]; [6],7.4 ± 1.3 mL/day
same,Activity on lipid peroxide formation,[3],higher activity
same,Inhibitory Effect (%) on lipid peroxide formation,"[3]; n = 3, mean ± standard error, 37° C., 1 hour",88.6 ± 6.8%
same,delay of appearance of the convulsion,"[4]; 100 mg/kg orally, versus vehicle",about 40 minutes
same,Ischemic convulsive seizure Time,"[4]; 100 mg/kg p.o., n = 5",199 min
same,Ischemic convulsive seizure Incidence (%),[4]; [7],20%
same,Ischemic convulsive seizure Incidence (animals),[4]; [7],1/5
same,Extrasystole,"[5]; 20 mg/kg total, oral",3.3 ± 0.8 systole/min
same,Mortality (animals),"[5]; 20 mg/kg total, oral",1/17
same,Mortality (percentage),"[5]; 20 mg/kg total, oral",6 percentage
same,Ventricular fibrillation Incidence (animals),"[5]; 20 mg/kg total, oral",9/17
same,Ventricular fibrillation Incidence (percentage),"[5]; 20 mg/kg total, oral",53 percentage
same,Ventricular tachycardia Incidence (animals),"[5]; 20 mg/kg total, oral",11/17
same,Ventricular tachycardia Incidence (percentage),"[5]; 20 mg/kg total, oral",65 percentage
same,Ventricular fibrillation Duration,"[5]; 20 mg/kg total, oral",31.0 ± 28.2 s
same,Ventricular tachycardia Duration,"[5]; 20 mg/kg total, oral",10.2 ± 3.2 s
same,Extrasystole,"[5]; 50 mg/kg total, oral",1.1 ± 0.3 systole/min
same,Mortality (animals),"[5]; 50 mg/kg total, oral",0/9
same,Mortality (percentage),"[5]; 50 mg/kg total, oral",0 percentage
same,Ventricular fibrillation Incidence (animals),"[5]; 50 mg/kg total, oral",2/9
same,Ventricular fibrillation Incidence (percentage),"[5]; 50 mg/kg total, oral",22 percentage
same,Ventricular tachycardia Incidence (animals),"[5]; 50 mg/kg total, oral",2/9
same,Ventricular tachycardia Incidence (percentage),"[5]; 50 mg/kg total, oral",22 percentage
same,Ventricular fibrillation Duration,"[5]; 50 mg/kg total, oral",1.2 ± 0.8 s
same,Ventricular tachycardia Duration,"[5]; 50 mg/kg total, oral",3.2 ± 2.6 s
same,frequency of occasional PVCs,[5]; 20 and 50 mg/kg,less significantly
same,mortality due to VF,[5]; 20 and 50 mg/kg,low
same,period of time during which the symptom lasted,[5]; 20 and 50 mg/kg,shortened
same,occurrence of ventricular arrhythmias,"[5]; 20 and 50 mg/kg of compound (1-12), 50 mg/kg of vitamin C or E, oral",suppressed significantly and depending on the dosages
